Test system: Alfalfa weevil
Assay: Alfalfa weevil control on sprayed Alfalfa plots
Type: in vivo
Conditions: Treatment No. 2, 0.022 lb active ingredient per acre
From the text: The relative effect of pesticidal formulation of the present disclosure was studied for controlling Alfalfa weevil on Alfalfa:
To study the effect of formulation of the present disclosure, four 10×20 sq.ft plots of Alfalfa were set up for each treatment and 20 gal/acre test solution was sprayed with hand sprayer. Then 10 stems of Alfalfa per replication were collected randomly after 4 days and 7 days of treatment. The stems so collected were shaken into 1 gal white container. The evaluation results obtained are provided herein Table No. 5.

CC1(C)C(C=C(Cl)Cl)C1C(=O)OC(C#N)c1ccc(F)c(Oc2ccccc2)c1 (stereo not drawn) [Beta- CYFLUTHRIN]
Alfalfa weevil larvae/10 stems (Mean ± SE) (4 Days after treatment): 0.3 ± 0.3 larvae/10 stems
Alfalfa weevil larvae/10 stems (Mean ± SE) (7 Days after treatment): 0.0 ± 0.0 larvae/10 stems
